Laboratory results as given in US11013780B2, “Methods of treating female infertility” (Myovant Sciences GmbH, priority 2016, dated 2021).
Where a SMILES comes first, the peptide text is derived from it. [ ]: non-standard residue; d: D form. Arg(Me) = CNC(=N)NCCC[C@H](N)C(=O)O; Hyp = O=C(O)[C@@H]1C[C@@H](O)CN1; azaGly = NNC(=O)O

How the values were obtained:
[1] = Tissue distribution and excretion of radioactivity in rats; format: in vivo
Experimental: The concentrations of the radioactivity in the tissues of male albino and pigmented rats were investigated after a single IV administration of [^14C]API-MA at 1.049 mg/kg (1 mg/kg API-FB). […] The radioactivity, measured in albino rats, was rapidly eliminated from all of the tissues after IV administration of API-MA.
The urinary, fecal, biliary, and expiratory excretion of the dosed radioactivity was investigated after a single SC or IV administration of [^14C]API-MA at 1.049 mg/kg (1 mg/kg API-FB) to male Sprague-Dawley rats in two studies.

serum LH and FSH [2] = experiment: Single dose pharmacodynamics (LH, FSH), Japanese men; format: in vivo, human; conditions: single dose 0.001 to 0.5 mg
Experimental: In the phase 1 clinical study of API-MA, subjects enrolled in the first seven cohorts received single SC bolus doses of 0.001, 0.004, 0.01, 0.04, 0.1, 0.25 or 0.5 mg of API-MA or placebo. Subjects enrolled in the eighth and ninth cohorts received single SC infusion doses of 0.25 or 0.5 mg of API-MA or placebo. The pharmacodynamics of the following hormones were assessed: LH, FSH, dihydroepiandrosterone sulfate (DHEA-S), growth hormone (GH), prolactin (PRL), thyroid-stimulating hormone (TSH), and adrenocorticotropic hormone (ACTH). The pharmacodynamic analysis set consisted of 37 subjects (bolus cohorts: 29; infusion cohorts: 8). […] In addition, blood specimens were collected for the measurement of LH and FSH on the day prior to dosing with API-MA. The time courses of mean serum LH concentrations following a single SC bolus of API-MA at doses ranging from 0.001 mg to 0.5 mg are shown in FIG. 6. The LH concentrations peaked between 12 and 24 hours and generally returned to baseline by 72 hours postdose. The magnitudes and durations of the LH concentration increases were similar across the dose range, 0.001 to 0.5 mg. The LH time courses were similar following a single 2-hour SC infusion of API-MA (data not shown).

[3] = test system: 127 enzyme and radio ligand binding assays; experiment: Series of 127 enzyme and radio ligand binding assays; conditions: 10 μmol/L
human KISS1R = human KISS1R (Homo sapiens, UniProt Q969F8); experiment: Competitive binding assay, human KISS1R; design: expressed in transfected cells
Excerpt: The binding affinity of API-MA to membrane fractions of KISS1R-expressing recombinant cells was examined in a competitive binding assay.

[4] = PK across species (rats, dogs, monkeys), SC bioavailability; format: in vivo; conditions: rat, dog, monkey, plasma, read-out: Bioavailability after SC administration
Excerpt: The PK of API-MA was studied in rats, dogs, and monkeys.

serum LH and FSH [5] = experiment: Single dose pharmacodynamics (LH, FSH), European men; format: in vivo, human
Experimental: Another study was a single dose, phase 1 clinical study of API-MA in healthy men age 50 to 76 years. Subjects enrolled in the first […] cohorts received 0.001, 0.003, 0.01, 0.03, 0.1 or 0.3 mg of API-MA or placebo by single SC bolus. Subjects enrolled in the seventh, eighth, and ninth cohorts received 1, 3, or 6 mg of API-MA or placebo by single 2-hour SC infusion. The pharmacodynamics of each of the following hormones was assessed: LH and FSH. PRL, TSH, cortisol, sex hormone binding globulin (SHBG), and plasma ACTH (also known as corticotropin) concentrations were measured on the day prior to dosing and on day 4, the Final Visit. To measure serum concentrations of LH and FSH in the bolus cohorts, blood specimens were collected at the following nominal times: the day prior to dosing, predose, and 0.083, 0.25, 0.75, 1, 2, 3, 4, 6, 8, 12, 16, 24, 36, 48 and 72 hours postdose. In the infusion cohorts, blood specimens were collected at the following nominal times: the day prior to dosing, predose or start of the infusion, and 0.5, 1, 1.5, 2 (end of infusion), 2.25, 2.5, 3, 4, 6, 8, 10, 14, 18, 26, 50 and 74 hours after the start of infusion. Serum LH concentrations increased after a single SC bolus of API-MA, as well as after a single 2-hour SC infusion of API-MA. The concentrations peaked between 6 and 12 hours and returned to baseline by 72 hours. The magnitudes and durations of the LH concentration increases were similar across the dose range, 0.001 to 6 mg.

[6] = In vitro distribution into blood cells, rats; format: in vitro ADME
Experimental: The in vitro distribution ratios of [^14C]API-MA into the blood cells at the concentrations of 0.01, 0.1, 1, and 10 μg/mL API-FB (free form) were 7.8%, 8.0%, 7.1%, and 4.8% for rats, 2.4%, 2.0%, 1.6%, and 1.2% for dogs, and 2.0%, 0.0%, 0.0%, and 0.5% for humans, respectively. […] The in vitro plasma protein binding ratios of [^14C]API-FB in rats, dogs, monkeys, and humans were determined by the ultracentrifugation method. In addition, the protein binding to human serum albumin (HSA), α1-acid glycoprotein (AGP), and HSA/AGP was investigated. […] In rats and dogs, a slight decrease in the binding ratio at the concentration range between 0.1 and 1.0 μg/mL API-FB was observed. In monkeys and humans, the binding was independent of the drug concentrations from 0.01 to 10 μg/mL API-FB.

[7] = rats, IV 1 mg/kg API-FB, 24 hours postdose, first study
[8] = rats, IV 1 mg/kg API-FB, 48 hours postdose, second study
[9] = rats, SC 1 mg/kg API-FB, 24 hours postdose, first study
[10] = rats, SC 1 mg/kg API-FB, 48 hours postdose, second study

Chain of human KISS1R (Q969F8 whole entry): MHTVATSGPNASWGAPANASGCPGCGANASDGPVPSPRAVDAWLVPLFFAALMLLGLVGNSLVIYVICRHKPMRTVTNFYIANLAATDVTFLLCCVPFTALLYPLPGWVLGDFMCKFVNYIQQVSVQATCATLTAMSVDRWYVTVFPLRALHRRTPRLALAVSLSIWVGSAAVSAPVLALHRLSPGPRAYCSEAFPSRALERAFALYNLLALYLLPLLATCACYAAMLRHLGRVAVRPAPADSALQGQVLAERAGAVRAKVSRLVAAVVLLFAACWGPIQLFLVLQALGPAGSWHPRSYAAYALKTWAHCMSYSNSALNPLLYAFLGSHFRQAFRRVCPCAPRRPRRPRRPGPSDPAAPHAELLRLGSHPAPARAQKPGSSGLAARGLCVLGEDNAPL

## CC(=O)O.CNC(=N)NCCC[C@H](NC(=O)[C@H](CC(C)C)NC(=O)NNC(=O)[C@H](Cc1ccccc1)NC(=O)[C@@H](NC(=O)[C@H](CC(N)=O)NC(=O)[C@@H]1C[C@@H](O)CN1C(=O)[C@@H](Cc1ccc(O)cc1)NC(C)=O)[C@@H](C)O)C(=O)N[C@@H](Cc1c[nH]c2ccccc12)C(N)=O [API-MA, 2-(N-Acetyl-D-tyrosyl-trans-4-hydroxy-L-prolyl-Lasparaginyl-L-threonyl-L-phenylalanyl)-hydrazinocarbonyl-L-leucyl-Nω-methyl-L-arginyl-L-tryptophanamide monoacetate] (Ac-[dY][Hyp]NTF[azaGly]L[Arg(Me)]W-NH2)
[1]; male albino and pigmented rats, single IV 1 mg/kg API-FB
  Tissue distribution of radioactivity: distributed widely into the tissues
[1]; pigmented rats, single IV 1 mg/kg API-FB
  Affinity for melanin in vivo: little affinity for melanin in vivo
[1]; [7]
  Excretion of radioactivity in bile: 20.7%
  Excretion of radioactivity in feces: 0.3%
  Excretion of radioactivity in urine: 76.6%
[1]; [8]
  Excretion of radioactivity in feces: 28.2%
  Excretion of radioactivity in urine: 70.0%
[1]; [9]
  Excretion of radioactivity in bile: 15.5%
  Excretion of radioactivity in feces: 0.2%
  Excretion of radioactivity in urine: 84.7%
[1]; [10]
  Excretion of radioactivity in feces: 20.4%
  Excretion of radioactivity in urine: 78.1%
[1]; rats, SC or IV 1 mg/kg API-FB, second study
  Excretion via expiration: minimal
Serum LH and FSH [2]
  Time of FSH return to baseline / predose level: ≤ 72 h
  Time of LH return to baseline: ≤ 72 h
[3]
  Inhibitory effect in enzyme and receptor binding assays: did not show any significant inhibitory effect
Human KISS1R
  IC50: 230 pM
[4]
  bioavailability: > 55%
Serum LH and FSH [5]; any dose level
  Changes in serum SHBG, prolactin, TSH, corticotropin, cortisol: no relevant changes
Serum LH and FSH [5]; single dose 0.001 to 6 mg
  Time of FSH return / decline towards baseline: ≤ 72 h
  Time of LH return to baseline: ≤ 72 h
[6]; 0.01 μg/mL API-FB
  Distribution ratio into blood cells: 7.8%
[6]; 0.1 μg/mL API-FB
  Distribution ratio into blood cells: 8.0%
[6]; 1 μg/mL API-FB
  Distribution ratio into blood cells: 7.1%
[6]; 10 μg/mL API-FB
  Distribution ratio into blood cells: 4.8%
